Remaining activity data for 19 compounds are collected here from article PMC8286840, “Identifying SARS-CoV-2 antiviral compounds by screening for small molecule inhibitors of Nsp3 papain-like protease” (Biochemical Journal, 2021).

Structures are written as SMILES. Where a name gives a salt, the structure may show the parent alone. Read-outs that look alike come from different tables or passages of the source.

For test [1], the target named is T1, SARS-CoV-2 PLpro (nsp3 1564–1878) (Severe acute respiratory syndrome coronavirus 2, UniProt P0DTD1). The test can be described thus: biochemical. Also noted: FRET-quenched peptide (Pro3) cleavage by PLpro, 10 min pre-incubation, slope over 20 min, normalised to no-compound control. The settings on record: read-out: % of control remaining.
The target in test [2] is T1, SARS-CoV-2 PLpro (nsp3 1564–1878). In words: biochemical. Also noted: FRET-quenched peptide (Pro3) cleavage by PLpro, 10 min pre-incubation, slope over 20 min, normalised to no-compound control. The note with it: read-out: % of control remaining. This is another data set of the same source.

As for `Nn1nnc2ccccc21` [1-Aminobenzotriazole], the remaining activity at 3.75 µM in test [1] (Well no.=253, high concentration screen) was determined as 99%. In addition, the remaining activity at 1.25 µM in test [2] (Well no.=253, low concentration screen) is 98.6%.

`Clc1ccc(COC(Cn2ccnc2)c2ccc(Cl)cc2Cl)c(Cl)c1` (stereo not shown) [Miconazole]: in test [1] (Well no.=1965, high concentration screen), the remaining activity at 3.75 µM is 92.2%. For the same compound, in test [2] (Well no.=1965, low concentration screen), the remaining activity at 1.25 µM worked out at 86.9%.

`O=C1O[C@]2(CC[C@H](C(=O)Nc3ccn(-c4ccccc4F)n3)CC2)c2cnccc21` [MK-0557]: in test [1] (Well no.=6987, high concentration screen), the remaining activity at 3.75 µM came to 104%. Moreover, the remaining activity at 1.25 µM in test [2] (Well no.=6987, low concentration screen) turned out to be 104%.

Turning to `C1CCC(C(CC2CCCCN2)C2CCCCC2)CC1` (stereo not shown) [Perhexiline maleate salt], the remaining activity at 3.75 µM in test [1] (Well no.=5958, high concentration screen) is 95.4%. Further, in test [2] (Well no.=5958, low concentration screen), the remaining activity at 1.25 µM amounted to 97.2%.

Take `CC[C@@H](CO)NCCN[C@@H](CC)CO` [Ethambutol HCl]: the remaining activity at 3.75 µM in test [1] (Well no.=5072, high concentration screen) is 100%. Moreover, the remaining activity at 1.25 µM in test [2] (Well no.=5072, low concentration screen) was found to be 99.5%.

Take `Cn1cc(/C=C2\C(=O)Nc3cccnc32)c2ccccc21` [GW441756]: the remaining activity at 3.75 µM in test [1] (Well no.=2791, high concentration screen) stood at 103%. Further, in test [2] (Well no.=2791, low concentration screen), the remaining activity at 1.25 µM came to 103%.

Turning to `CCN1C[C@]2(COC)[C@H](O)C[C@H](OC)[C@@]34[C@@H]5C[C@@]6(O)[C@H](OC(=O)c7ccccc7)[C@@H]5[C@@](OC(C)=O)([C@@H]([C@H](OC)[C@H]23)[C@@H]14)[C@@H](O)[C@@H]6OC` [Aconitine], the remaining activity at 3.75 µM in test [1] was 98.5%. In addition, in test [2], the remaining activity at 1.25 µM came out at 96%.

With `Cc1cccc(Nc2cc(Cl)nc(SCC(=O)O)n2)c1C` [WY-14643], the remaining activity at 3.75 µM in test [1] (Well no.=4570, high concentration screen) was 103%. For the same compound, the remaining activity at 1.25 µM in test [2] (Well no.=4570, low concentration screen) turned out to be 97.3%.

For the compound `Cc1cc(Nc2ncc3cc(-c4c(Cl)cccc4Cl)c(=O)n(C)c3n2)ccc1F` [PD-180970], in test [1] (Well no.=5604, high concentration screen), the remaining activity at 3.75 µM amounted to 96.4%. Moreover, the remaining activity at 1.25 µM in test [2] (Well no.=5604, low concentration screen) stood at 100%.

For `CC1=C(CC(=O)O)c2cc(F)ccc2/C1=C\c1ccc([S+](C)[O-])cc1` (stereo not shown) [Sulindac], the remaining activity at 3.75 µM came out at 105% in test [1] (Well no.=1270, high concentration screen) and 96.7% in test [1] (Well no.=1756, high concentration screen). The remaining activity at 1.25 µM was 102% in test [2] (Well no.=1270, low concentration screen) and 98.1% in test [2] (Well no.=1756, low concentration screen).

Regarding `CC[C@@H]1C(=O)OC[C@@H]1Cc1cncn1C` [(+)-Pilocarpine hydrochloride], in test [1] (Well no.=1102, high concentration screen), the remaining activity at 3.75 µM is 96.8%. For the same compound, the remaining activity at 1.25 µM in test [2] (Well no.=1102, low concentration screen) came to 96.5%.

Turning to `CC[C@]12C=CCN3CC[C@@]4(c5cc([C@@]6(C(=O)OC)C[C@@H]7C[C@@H](C(C)(F)F)CN(Cc8c6[nH]c6ccccc86)C7)c(OC)cc5N(C)[C@H]4[C@@](O)(C(=O)OC)[C@@H]1OC(C)=O)[C@@H]32` [Vinflunine Tartrate], in test [1] (Well no.=4892, high concentration screen), the remaining activity at 3.75 µM is 94.7%. In test [2] (Well no.=4892, low concentration screen), the remaining activity at 1.25 µM is 95.2%.

Regarding `CC(C)=CCC/C(C)=C/CC/C(C)=C/CSc1ccccc1C(=O)O` [Salirasib], the remaining activity at 3.75 µM in test [1] (Well no.=6668, high concentration screen) amounted to 105%. Also, the remaining activity at 1.25 µM in test [2] (Well no.=6668, low concentration screen) was determined as 104%.

Consider `C/C(=C/C=C/[C@@H](C)C(=O)O)[C@H]1CN[C@H](C(=O)O)[C@H]1CC(=O)O` [Domoic acid], for which, in test [1], the remaining activity at 3.75 µM was 102%. The remaining activity at 1.25 µM in test [2] was found to be 99.4%.

`CC(C)[C@@H](C)/C=C/[C@@H](C)[C@H]1CC[C@H]2C3=CC=C4C[C@@H](O)CC[C@]4(C)[C@H]3CC[C@]12C` [Ergosterol]: the remaining activity at 3.75 µM in test [1] (Well no.=5194, high concentration screen) is 101%. Also, in test [2] (Well no.=5194, low concentration screen), the remaining activity at 1.25 µM was determined as 102%.

As for `CNS(=O)(=O)CCc1ccc2[nH]cc(C3CCN(C)CC3)c2c1` [Naratriptan HCl], in test [1] (Well no.=4909, high concentration screen), the remaining activity at 3.75 µM was 99.8%. For the same compound, the remaining activity at 1.25 µM in test [2] (Well no.=4909, low concentration screen) was determined as 97.9%.

Take `C[C@@H]1[C@@H]2Cc3ccc(O)cc3[C@@]1(C)CCN2CC1CC1` [(+)-Cyclazocine]: the remaining activity at 3.75 µM in test [1] (Well no.=583, high concentration screen) came out at 98.8%. The remaining activity at 1.25 µM in test [2] (Well no.=583, low concentration screen) stood at 72.1%.

`COc1ccc(-c2cc(=O)c3c(O)cc(O)cc3o2)cc1` [Acacetine]: the remaining activity at 3.75 µM in test [1] (Well no.=3398, high concentration screen) is 92.9%. Further, the remaining activity at 1.25 µM in test [2] (Well no.=3398, low concentration screen) came to 94.2%.

In the case of `CCCC[N+]1(C)[C@@H]2C[C@@H](OC(=O)[C@H](CO)c3ccccc3)C[C@H]1[C@@H]1O[C@@H]12` (stereo partly shown) [Scopolamine N-butylbromide], the remaining activity at 3.75 µM in test [1] (Well no.=3355, high concentration screen) came to 98.9%. In addition, the remaining activity at 1.25 µM in test [2] (Well no.=3355, low concentration screen) came out at 99.9%.
